In patent publication US8354447B2, “mGLU receptors antagonists for treating disorders associated with mGLU receptors including addiction and depression” (The Scripps Research Institute, priority 2002, dated 2013):

Columns and labels:
Wistar rats [1] = test: Cocaine, nicotine and food responding under a progressive ratio schedule; format: in vivo, rat
Source text: Under a fixed ratio schedule of reinforcement, as described above, an animal responds a ‘fixed’ number of times on an active lever to obtain a drug infusion. Fixed ratio (FR) schedules of reinforcement provide important information on whether a drug is reinforcing. […] By determining how hard an animal is willing to work for a drug, while limiting total intake, the PR schedule allows better separation of motivation for drug consumption from possible satiating effects of cumulative drug doses (Stafford et al. 1998). Such characteristics result in theoretically different interpretations of the factors controlling drug-seeking behavior on a PR compared with a FR. […] After acquisition of cocaine or nicotine self-administration under an FR, as described above, rats were switched to a PR schedule of reinforcement in which the following sequence of level presses was required to receive each subsequent infusion of nicotine or cocaine: 5, 10, 17, 24, 32, 42, 56, 73, 95, 124, 161, 208, etc. Rats were injected with MPEP (0, 1, 3 or 9 mg/kg) 30 min prior to each PR session. All PR sessions lasted for 3 h. All subjects reached breaking-points during the 3 hour session.

Wistar rats [2] = test: Nicotine self-administration under a fixed ratio schedule (LY341495, LY341495 and MPEP); conditions: MPEP 1 mg/kg alone
Male DBA/2J mice = test: Intravenous nicotine self-administration in drug-naive mice; format: in vivo, mouse
Description: Acute self-administration of nicotine was carried out using a previously described method (Semenova et al. 1995, 1999; Kuzmin et al. 1996a, 1997). The tails of the mice were fixed to the surface of the apparatus during the testing sessions to allow drug delivery; the fixing of the tail allowed the mice to move all of their four paws, head and entire body. […] The only cue associated with the delivery of the drug or vehicle infusion was the noise of the pump. Mice were tested either once or twice, with approximately one month between each test. The second test only occurred in a subset of the original set of mice (2-7 pairs of mice from each of the original groups). This was done to increase the number of subjects/condition, and involved randomly assigning and testing these mice under a different set of conditions than in the original test (i.e., different nicotine and/or MPEP dose).
Saline or one of four nicotine doses (0.016, 0.048, 0.16, 0.48 μg/inf) were made available to different groups of animals. Each group consisted of 9-17 pairs of animals, including 2-7 mice per group that had previously undergone one testing session at least one month previously (see above). Pre-treatment with MPEP (0, 5, 10, 20 mg/kg intraperitoneally) occurred 15 minutes prior to the initiation of the test session.
Data analyses were based on the comparison of both active and passive mouse nose-pokes in each pair, using the formula: R=log(AT/PT)−log(ABL/PBL), where (AT/PT) is the ratio of the total number of active versus passive mouse nose-pokes during the 30-min test, and (ABL/PBL) is the ratio of the total number of active versus passive mouse nose-pokes during the 10-min pre-test. […] Some data-points (9/237 pairs of mice) were excluded from the final analyses based on whether or not they lay within 2 standard deviations of the group mean for that specific condition. Nicotine self-administration data, obtained after saline pre-treatment, were analyzed using a one-way ANOVA with nicotine (4 levels) defined as the between-subjects factor. R-criterion data were analyzed using two-way ANOVAs with MPEP dose (4 levels) and nicotine dose (4 levels) defined as the between-subjects factors. Pre-planned R-criterion data analyses were performed using one-way ANOVAs for each available dose of self-administered nicotine and saline, with MPEP dose (4 levels) defined as the between-subject factor. Appropriate individual comparisons were performed using the Student-Newman-Keuls post hoc test. […] Body weights and pre-test nose-poke activity levels were analyzed with three-way ANOVAs (nicotine dose, MPEP dose and mouse, i.e. active/passive, defined as between-subjects factors).

male Wistar rats = test: ICSS thresholds during and after withdrawal from chronic nicotine, bupropion; format: in vivo, rat
Source text: Trials began with an electrical stimulus followed by a 7.5-s response window within which the animal could make a response to receive a second contingent stimulus identical to the initial noncontingent stimulus. A response during this 7.5-s window was considered a positive response, whereas the lack of a response was considered a negative response. Additional responses during a 2-s period immediately following a positive response had no consequence. The intertrial interval (ITI) that followed either a positive response or the end of the response window (in the case of a negative response) ranged from 7.5 to 12.5 s with an average duration of 10 s. […] Subjects then were tested on a current-threshold procedure in which stimulus intensities were varied during four alternating descending and ascending series with a step size of […]. Blocks of three trials were offered at each current step with the starting current of the first descending series set at […] above the subjects' individual baseline thresholds estimated at the end of preliminary training. […] An ascending series was terminated after two consecutive blocks of trials during which the animal made positive responses on at least two out of the three trials or after 15 successive increments were presented. The mean of the four current thresholds from the alternating series was defined as the subject's ICSS threshold for that session. A series was terminated after either 15 stimulus increments (or decrements) had occurred, or after the determination of the threshold for the series (see below). Each test session typically lasted 30 min.
Naive animals were prepared with osmotic minipumps containing either an individualized nicotine solution (3.16 mg/kg per day, free base) or saline. […] After implantation of the minipumps, thresholds were assessed daily thereafter to assess the effects of chronic nicotine exposure on reward thresholds. Seven days (exactly seven 24-h periods) after pump insertion, the pumps were removed in order to precipitate the nicotine withdrawal syndrome. ICSS thresholds were measured 12, 18, 24, 36, 48 and 72 h after pump removal. Animals were injected with bupropion (0, 10, 20, 40 mg/kg IP; n=8-11) 30 min prior to the 18-h time point.

[3] = MPEP 5 mg/kg, Nicotine 0 μg/inf
[4] = MPEP 5 mg/kg, Nicotine 0.016 μg/inf
[5] = MPEP 5 mg/kg, Nicotine 0.048 μg/inf
[6] = MPEP 5 mg/kg, Nicotine 0.16 μg/inf
[7] = MPEP 5 mg/kg, Nicotine 0.48 μg/inf
[8] = MPEP 10 mg/kg, Nicotine 0 μg/inf
[9] = MPEP 10 mg/kg, Nicotine 0.016 μg/inf
[10] = MPEP 10 mg/kg, Nicotine 0.048 μg/inf
[11] = MPEP 10 mg/kg, Nicotine 0.16 μg/inf
[12] = MPEP 10 mg/kg, Nicotine 0.48 μg/inf
[13] = MPEP 20 mg/kg, Nicotine 0 μg/inf
[14] = MPEP 20 mg/kg, Nicotine 0.016 μg/inf
[15] = MPEP 20 mg/kg, Nicotine 0.048 μg/inf
[16] = MPEP 20 mg/kg, Nicotine 0.16 μg/inf
[17] = MPEP 20 mg/kg, Nicotine 0.48 μg/inf

Cc1cccc(C#Cc2ccccc2)n1 [MPEP, 2-methyl-6-(phenylethynyl)-pyridine]
responding for food (Wistar rats [1]; MPEP 1-9 mg/kg, PR schedule): no statistically significant effect on responding for food
responding under a progressive ratio schedule (motivation) (Wistar rats [1]; MPEP 1-9 mg/kg, cocaine, nicotine, food): decreased the motivation of rats to obtain cocaine or nicotine without affecting their motivation for food
break point (Wistar rats [1]; PR schedule, cocaine and nicotine): significantly lowered the break point for cocaine and nicotine
cocaine or nicotine self-administration (Wistar rats [2]): has no effects on cocaine or nicotine self-administration
total self-injected nicotine dose (Male DBA/2J mice; 0.048 μg/inf nicotine): no significant effect of MPEP on total self-injected nicotine dose
R-criterion (Male DBA/2J mice; 20 mg/kg MPEP, 0.048 μg/inf nicotine): a trend for 20 mg/kg MPEP to decrease the R-criterion below zero
nose-pokes, active pre-test (Male DBA/2J mice; [3]): 8.19 ± 1.03 responses per minute
nose-pokes, active test (Male DBA/2J mice; [3]): 4.99 ± 1.17 responses per minute
nose-pokes, passive pre-test (Male DBA/2J mice; [3]): 8.38 ± 0.96 responses per minute
nose-pokes, passive test (Male DBA/2J mice; [3]): 6.41 ± 1.38 responses per minute
nose-pokes, active pre-test (Male DBA/2J mice; [4]): 7.86 ± 0.87 responses per minute
nose-pokes, active test (Male DBA/2J mice; [4]): 2.62 ± 0.49 responses per minute
nose-pokes, passive pre-test (Male DBA/2J mice; [4]): 8.01 ± 0.91 responses per minute
nose-pokes, passive test (Male DBA/2J mice; [4]): 3.46 ± 0.74 responses per minute
nose-pokes, active pre-test (Male DBA/2J mice; [5]): 9.13 ± 1.37 responses per minute
nose-pokes, active test (Male DBA/2J mice; [5]): 3.43 ± 0.67 responses per minute
nose-pokes, passive pre-test (Male DBA/2J mice; [5]): 8.93 ± 1.36 responses per minute
nose-pokes, passive test (Male DBA/2J mice; [5]): 4.45 ± 1.06 responses per minute
nose-pokes, active pre-test (Male DBA/2J mice; [6]): 8.32 ± 0.94 responses per minute
nose-pokes, active test (Male DBA/2J mice; [6]): 4.67 ± 0.95 responses per minute
nose-pokes, passive pre-test (Male DBA/2J mice; [6]): 8.48 ± 3.31 responses per minute
nose-pokes, passive test (Male DBA/2J mice; [6]): 4.32 ± 2.37 responses per minute
nose-pokes, active pre-test (Male DBA/2J mice; [7]): 8.12 ± 1.17 responses per minute
nose-pokes, active test (Male DBA/2J mice; [7]): 3.04 ± 0.73 responses per minute
nose-pokes, passive pre-test (Male DBA/2J mice; [7]): 8.58 ± 1.38 responses per minute
nose-pokes, passive test (Male DBA/2J mice; [7]): 3.25 ± 0.88 responses per minute
nose-pokes, active pre-test (Male DBA/2J mice; [8]): 7.95 ± 0.99 responses per minute
nose-pokes, active test (Male DBA/2J mice; [8]): 4.92 ± 1.1 responses per minute
nose-pokes, passive pre-test (Male DBA/2J mice; [8]): 8.00 ± 1.06 responses per minute
nose-pokes, passive test (Male DBA/2J mice; [8]): 5.86 ± 1.56 responses per minute
nose-pokes, active pre-test (Male DBA/2J mice; [9]): 7.79 ± 0.83 responses per minute
nose-pokes, active test (Male DBA/2J mice; [9]): 6.48 ± 1.05 responses per minute
nose-pokes, passive pre-test (Male DBA/2J mice; [9]): 8.22 ± 0.87 responses per minute
nose-pokes, passive test (Male DBA/2J mice; [9]): 4.26 ± 0.94 responses per minute
nose-pokes, active pre-test (Male DBA/2J mice; [10]): 7.43 ± 0.98 responses per minute
nose-pokes, active test (Male DBA/2J mice; [10]): 3.92 ± 1.18 responses per minute
nose-pokes, passive pre-test (Male DBA/2J mice; [10]): 8.06 ± 1.39 responses per minute
nose-pokes, passive test (Male DBA/2J mice; [10]): 5.83 ± 1.72 responses per minute
nose-pokes, active pre-test (Male DBA/2J mice; [11]): 7.12 ± 0.66 responses per minute
nose-pokes, active test (Male DBA/2J mice; [11]): 4.19 ± 0.81 responses per minute
nose-pokes, passive pre-test (Male DBA/2J mice; [11]): 7.20 ± 0.69 responses per minute
nose-pokes, passive test (Male DBA/2J mice; [11]): 4.62 ± 0.82 responses per minute
nose-pokes, active pre-test (Male DBA/2J mice; [12]): 7.49 ± 0.86 responses per minute
nose-pokes, active test (Male DBA/2J mice; [12]): 3.58 ± 0.73 responses per minute
nose-pokes, passive pre-test (Male DBA/2J mice; [12]): 7.48 ± 0.88 responses per minute
nose-pokes, passive test (Male DBA/2J mice; [12]): 3.81 ± 0.47 responses per minute
nose-pokes, active pre-test (Male DBA/2J mice; [13]): 6.98 ± 1.18 responses per minute
nose-pokes, active test (Male DBA/2J mice; [13]): 5.96 ± 1.69 responses per minute
nose-pokes, passive pre-test (Male DBA/2J mice; [13]): 8.50 ± 1.43 responses per minute
nose-pokes, passive test (Male DBA/2J mice; [13]): 6.33 ± 1.66 responses per minute
nose-pokes, active pre-test (Male DBA/2J mice; [14]): 7.10 ± 0.87 responses per minute
nose-pokes, active test (Male DBA/2J mice; [14]): 5.48 ± 1.09 responses per minute
nose-pokes, passive pre-test (Male DBA/2J mice; [14]): 7.35 ± 0.85 responses per minute
nose-pokes, passive test (Male DBA/2J mice; [14]): 8.77 ± 1.85 responses per minute
nose-pokes, active pre-test (Male DBA/2J mice; [15]): 8.36 ± 1.07 responses per minute
nose-pokes, active test (Male DBA/2J mice; [15]): 3.56 ± 1.04 responses per minute
nose-pokes, passive pre-test (Male DBA/2J mice; [15]): 8.31 ± 1.28 responses per minute
nose-pokes, passive test (Male DBA/2J mice; [15]): 5.29 ± 1.11 responses per minute
nose-pokes, active pre-test (Male DBA/2J mice; [16]): 7.50 ± 1.25 responses per minute
nose-pokes, active test (Male DBA/2J mice; [16]): 5.06 ± 1.52 responses per minute
nose-pokes, passive pre-test (Male DBA/2J mice; [16]): 7.56 ± 1.32 responses per minute
nose-pokes, passive test (Male DBA/2J mice; [16]): 7.97 ± 1.76 responses per minute
nose-pokes, active pre-test (Male DBA/2J mice; [17]): 7.31 ± 0.98 responses per minute
nose-pokes, active test (Male DBA/2J mice; [17]): 4.67 ± 1.22 responses per minute
nose-pokes, passive pre-test (Male DBA/2J mice; [17]): 7.08 ± 0.94 responses per minute
nose-pokes, passive test (Male DBA/2J mice; [17]): 4.35 ± 0.98 responses per minute
nicotine self-administration (R-criterion) (Male DBA/2J mice; MPEP 5, 10, 20 mg/kg, 0.048 μg/inf nicotine): significantly reduced nicotine self-administration at all doses tested
nose-poke responding (Male DBA/2J mice; active mice, 0.048 μg/inf nicotine): significantly decreased nose-poke responding in the active mice

CN1CCCC1c1cccnc1 (single isomer, unassigned; (-)) [nicotine, (−)-1-methyl-2-(3-pyridyl) pyrrolidine]
day of maximal threshold-lowering effect (male Wistar rats; nicotine via minipumps): 3 days
brain reward threshold (male Wistar rats; nicotine via minipumps 3.16 mg/kg per day for 7 days): small yet significant reduction in brain reward threshold
time points with significant elevation in reward thresholds post-withdrawal (male Wistar rats; nicotine withdrawal, saline-injected animals): up to 36 h
brain reward thresholds (male Wistar rats; withdrawal from chronic nicotine administration): significantly elevated brain reward thresholds
self-administration (R-criterion) (Male DBA/2J mice; 0.048 μg/inf nicotine, saline pretreatment): significantly different from saline administration
